Measurements as given in patent publication US20060263304A1, “Method of controlling alcohol intake and reversing alcohol effects” (priority 2005, published 2006).

Test system: non-substance dependent individual
Test: Case report: Flumazenil nasal spray before business dinners, control of alcohol intake
Format: in vivo
Excerpt: As in the co-pending applications, medication sprays are used to accomplish the above noted tasks. any one of several technologies may be used: • 1) A nasal spray applicator affecting the vein endings in the mucosal membranes of the nasal passage; • 2) A mouth spray affecting the buccal mucosal membrane in the mouth area; • 3) A pulmonary inhaler aerosolization into the lungs; • 4) Any other delivery system that provides direct absorption through mucus membranes directly into the blood stream. For example, the nasal spray may be used by an individual to assist in maintaining control of his or her drinking on a frequent or daily basis because they or their loved ones feel their use of alcohol is excessive. The spray will also act as a behavior trigger to assist in reminding the individual or retraining the individual to mind the frequency, amount or setting of intake of alcohol. In this setting of spray-assisted control of alcohol use there is provided a positive reinforcement of successful moderation, and eventually, the spray assist should no longer be needed. From several hours before, and including even while the individual is already drinking, the user of this nasal spray simply squirts one to three doses into each nostril in order to substantially decrease the total consumption of alcohol at any one drinking session. The duration of the effect will vary from individual to individual. The administration of the spray may be repeated as often as one wishes over the period or course of drinking to achieve the desired results, that is, a reduction in the use of alcohol, whether in total amount or in rapidity of alcohol ingestion. Case Report: A non-substance dependent individual ([…]) used this nasal spray by spraying two squirts of the medication “Flumazenil” into each nostril before business dinners on two separate occasions. Without this medication, their usual pattern was the ingestion of one to two martinis before and at the beginning of the meal, followed by one to two glasses of wine during and after the meal.

For CCOC(=O)c1ncn2c1CN(C)C(=O)c1cc(F)ccc1-2 [Flumazenil], the “effect of the alcohol on their thinking and feeling” value (two squirts into each nostril before business dinner, each of two occasions, self-reported) was “less of an effect on their thinking and feeling than usual”, the “actual intake of wine” value (two squirts into each nostril before business dinner, each of two occasions, usual pattern without medication one to two glasses of wine) was “less than one glass of wine” and the “actual intake of martini” value (two squirts into each nostril before business dinner, each of two occasions, usual pattern without medication one to two martinis) was “less than one martini”. The “interest in the alcoholic beverages” value (two squirts into each nostril before business dinners, two separate occasions, one individual) was “substantially reduced”.
